Source: PubChem BioAssay (NCI)
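Five compound concentrations were applied to cells in 96-well plates for 48 hours; endpoints were derived by simple linear interpolation of the resulting dose-response curve. TGI: concentration producing complete growth inhibition.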

How the values were obtained:
Assay in all cases: NCI-60 cell line screen, 48 h
786-0 renal = test system: 786-0 renal
A498 renal = test system: A498 renal
ACHN renal = test system: ACHN renal
CCRF-CEM leukemia = test system: CCRF-CEM leukemia
COLO 205 colon = test system: COLO 205 colon
HCT-15 colon = test system: HCT-15 colon
HOP-62 NSCLC = test system: HOP-62 NSCLC
HT29 colon = test system: HT29 colon
KM12 colon = test system: KM12 colon
MDA-MB-435 = test system: MDA-MB-435
MDA-N = test system: MDA-N
MOLT-4 leukemia = test system: MOLT-4 leukemia
NCI-H226 lung = test system: NCI-H226 lung
NCI-H460 lung = test system: NCI-H460 lung
NCI-H522 lung = test system: NCI-H522 lung
SF-295 CNS = test system: SF-295 CNS
SK-MEL-5 melanoma = test system: SK-MEL-5 melanoma
SNB-75 CNS = test system: SNB-75 CNS
SW-620 colon = test system: SW-620 colon
TK-10 renal = test system: TK-10 renal

O=C(/C=C(\Nc1ccccc1O)c1ccccc1)C(=O)NC12CC3CC(CC(C3)C1)C2
TGI (786-0 renal): > 10 µM
TGI (A498 renal): > 10 µM
TGI (ACHN renal): > 10 µM
TGI (CCRF-CEM leukemia): > 10 µM
TGI (COLO 205 colon): > 10 µM
TGI (HCT-15 colon): > 10 µM
TGI (HOP-62 NSCLC): > 10 µM
TGI (HT29 colon): 5.87 µM
TGI (KM12 colon): > 10 µM
TGI (MDA-MB-435): > 10 µM
TGI (MDA-N): > 10 µM
TGI (MOLT-4 leukemia): > 10 µM
TGI (NCI-H226 lung): > 10 µM
TGI (NCI-H460 lung): > 10 µM
TGI (NCI-H522 lung): > 10 µM
TGI (SF-295 CNS): > 10 µM
TGI (SK-MEL-5 melanoma): > 10 µM
TGI (SNB-75 CNS): > 10 µM
TGI (SW-620 colon): > 10 µM
TGI (TK-10 renal): > 10 µM

Cc1ccc2[nH]c3[nH]c(=O)[nH]c(=O)c3c2c1
TGI (786-0 renal): > 100 µM
TGI (A498 renal): > 100 µM
TGI (ACHN renal): > 100 µM
TGI (CCRF-CEM leukemia): > 100 µM
TGI (COLO 205 colon): > 100 µM
TGI (HCT-15 colon): > 100 µM
TGI (HOP-62 NSCLC): > 100 µM
TGI (HT29 colon): > 100 µM
TGI (KM12 colon): > 100 µM
TGI (MDA-MB-435): > 100 µM
TGI (MDA-N): > 100 µM
TGI (MOLT-4 leukemia): > 100 µM
TGI (NCI-H226 lung): > 100 µM
TGI (NCI-H522 lung): > 100 µM
TGI (SF-295 CNS): > 100 µM
TGI (SK-MEL-5 melanoma): > 100 µM
TGI (SNB-75 CNS): > 100 µM
TGI (SW-620 colon): > 100 µM
TGI (TK-10 renal): > 100 µM

CN(C)C=Nc1cccc2cnccc12
TGI (786-0 renal): > 100 µM
TGI (A498 renal): > 100 µM
TGI (ACHN renal): > 100 µM
TGI (CCRF-CEM leukemia): > 100 µM
TGI (COLO 205 colon): > 100 µM
TGI (HCT-15 colon): > 100 µM
TGI (HOP-62 NSCLC): > 100 µM
TGI (HT29 colon): > 100 µM
TGI (MDA-MB-435): > 100 µM
TGI (MDA-N): > 100 µM
TGI (MOLT-4 leukemia): > 100 µM
TGI (NCI-H226 lung): > 100 µM
TGI (NCI-H522 lung): > 100 µM
TGI (SF-295 CNS): > 100 µM
TGI (SK-MEL-5 melanoma): > 100 µM
TGI (SNB-75 CNS): > 100 µM
TGI (TK-10 renal): > 100 µM

O=C1c2ccccc2C(=O)N1CCCCCCNOCCCN1C(=O)c2ccccc2C1=O
TGI (786-0 renal): > 100 µM
TGI (A498 renal): 93.8 µM
TGI (ACHN renal): > 100 µM
TGI (CCRF-CEM leukemia): > 100 µM
TGI (COLO 205 colon): > 100 µM
TGI (HCT-15 colon): > 100 µM
TGI (HOP-62 NSCLC): > 100 µM
TGI (HT29 colon): > 100 µM
TGI (KM12 colon): 78.8 µM
TGI (MDA-MB-435): 74.7 µM
TGI (MDA-N): > 100 µM
TGI (MOLT-4 leukemia): 38.7 µM
TGI (NCI-H226 lung): > 100 µM
TGI (NCI-H460 lung): > 100 µM
TGI (NCI-H522 lung): 79.3 µM
TGI (SF-295 CNS): > 100 µM
TGI (SK-MEL-5 melanoma): 30.8 µM
TGI (SNB-75 CNS): > 100 µM
TGI (SW-620 colon): > 100 µM
TGI (TK-10 renal): > 100 µM

COc1ccc(N2C(=O)/C(=C\c3cccc(Oc4ccccc4)c3)S(=O)(=O)C2c2ccccc2)cc1 (stereo not given)
TGI (786-0 renal): 42.5 µM
TGI (A498 renal): > 100 µM
TGI (ACHN renal): > 100 µM
TGI (CCRF-CEM leukemia): > 100 µM
TGI (COLO 205 colon): > 100 µM
TGI (HCT-15 colon): > 100 µM
TGI (HOP-62 NSCLC): > 100 µM
TGI (KM12 colon): > 100 µM
TGI (MDA-MB-435): > 100 µM
TGI (MDA-N): 87.6 µM
TGI (MOLT-4 leukemia): 22.5 µM
TGI (NCI-H226 lung): > 100 µM
TGI (NCI-H460 lung): > 100 µM
TGI (NCI-H522 lung): 60.8 µM
TGI (SK-MEL-5 melanoma): 98.7 µM
TGI (SW-620 colon): > 100 µM
TGI (TK-10 renal): > 100 µM

N#CC(C#N)=C(N)/C(C#N)=C/c1cc(O)c(O)c(Br)c1
TGI (786-0 renal): > 100 µM
TGI (A498 renal): > 100 µM
TGI (ACHN renal): > 100 µM
TGI (CCRF-CEM leukemia): > 100 µM
TGI (COLO 205 colon): > 100 µM
TGI (HCT-15 colon): > 100 µM
TGI (HOP-62 NSCLC): > 100 µM
TGI (HT29 colon): > 100 µM
TGI (KM12 colon): > 100 µM
TGI (MDA-MB-435): > 100 µM
TGI (MDA-N): > 100 µM
TGI (MOLT-4 leukemia): > 100 µM
TGI (NCI-H226 lung): > 79.1 µM
TGI (NCI-H460 lung): > 100 µM
TGI (NCI-H522 lung): > 100 µM
TGI (SF-295 CNS): > 100 µM
TGI (SK-MEL-5 melanoma): > 100 µM
TGI (SNB-75 CNS): > 100 µM
TGI (SW-620 colon): > 100 µM
TGI (TK-10 renal): > 100 µM

O=C(Nc1ccccc1C(=O)O)/C(=C/c1ccccc1)NC(=O)c1ccccc1
TGI (786-0 renal): > 100 µM
TGI (A498 renal): > 100 µM
TGI (ACHN renal): > 100 µM
TGI (CCRF-CEM leukemia): > 100 µM
TGI (COLO 205 colon): > 100 µM
TGI (HCT-15 colon): > 100 µM
TGI (HOP-62 NSCLC): > 100 µM
TGI (HT29 colon): > 100 µM
TGI (KM12 colon): > 100 µM
TGI (MDA-MB-435): > 100 µM
TGI (MDA-N): > 100 µM
TGI (MOLT-4 leukemia): > 100 µM
TGI (NCI-H226 lung): > 100 µM
TGI (NCI-H460 lung): > 100 µM
TGI (NCI-H522 lung): > 100 µM
TGI (SF-295 CNS): > 100 µM
TGI (SK-MEL-5 melanoma): > 100 µM
TGI (SNB-75 CNS): > 100 µM
TGI (SW-620 colon): > 100 µM

COc1ccc(N[C@H](CS(=O)c2ccc(C)cc2)C(F)(F)C(F)(F)F)cc1 (stereo not given in full)
TGI (786-0 renal): > 100 µM
TGI (A498 renal): > 100 µM
TGI (ACHN renal): > 100 µM
TGI (CCRF-CEM leukemia): > 100 µM
TGI (COLO 205 colon): > 100 µM
TGI (HCT-15 colon): > 100 µM
TGI (HOP-62 NSCLC): > 100 µM
TGI (HT29 colon): > 100 µM
TGI (KM12 colon): > 100 µM
TGI (MDA-MB-435): > 100 µM
TGI (MDA-N): > 100 µM
TGI (MOLT-4 leukemia): > 100 µM
TGI (NCI-H226 lung): > 100 µM
TGI (NCI-H460 lung): > 100 µM
TGI (NCI-H522 lung): > 100 µM
TGI (SF-295 CNS): > 100 µM
TGI (SK-MEL-5 melanoma): > 100 µM
TGI (SNB-75 CNS): 75.6 µM
TGI (SW-620 colon): > 100 µM
TGI (TK-10 renal): > 100 µM

CC(=O)O[C@H]1CC[C@@]2(C)C(=CC[C@@H]3[C@@H]2CC[C@]2(C)C(=N/O)/C(=C/c4ccc([N+](=O)[O-])cc4)C[C@@H]32)C1
TGI (786-0 renal): 27.3 µM
TGI (A498 renal): 25.5 µM
TGI (ACHN renal): > 100 µM
TGI (CCRF-CEM leukemia): > 100 µM
TGI (COLO 205 colon): 10 µM
TGI (HCT-15 colon): > 100 µM
TGI (HOP-62 NSCLC): > 100 µM
TGI (HT29 colon): > 100 µM
TGI (KM12 colon): > 100 µM
TGI (MDA-MB-435): 29.3 µM
TGI (MDA-N): > 100 µM
TGI (MOLT-4 leukemia): > 100 µM
TGI (NCI-H226 lung): 67.7 µM
TGI (NCI-H460 lung): > 100 µM
TGI (NCI-H522 lung): 8.94 µM
TGI (SF-295 CNS): 20.7 µM
TGI (SK-MEL-5 melanoma): 7.95 µM
TGI (SNB-75 CNS): 40.5 µM
TGI (SW-620 colon): > 100 µM
TGI (TK-10 renal): 55.3 µM

CCOC(=O)c1cc2c([nH]1)C(=O)CC1=C2CCN1Cc1ccccc1
TGI (786-0 renal): 31 µM
TGI (A498 renal): 29 µM
TGI (ACHN renal): 25.6 µM
TGI (CCRF-CEM leukemia): 28.6 µM
TGI (COLO 205 colon): 31.8 µM
TGI (HCT-15 colon): 21.6 µM
TGI (HT29 colon): 30.8 µM
TGI (KM12 colon): 33.2 µM
TGI (MDA-MB-435): 27.6 µM
TGI (MDA-N): 26.8 µM
TGI (MOLT-4 leukemia): 17 µM
TGI (NCI-H226 lung): 32.3 µM
TGI (NCI-H460 lung): 39.2 µM
TGI (NCI-H522 lung): 38.5 µM
TGI (SF-295 CNS): 34.2 µM
TGI (SNB-75 CNS): 46.2 µM
TGI (SW-620 colon): 23.3 µM
TGI (TK-10 renal): 30 µM

O=[N+]([O-])c1cccc2nc3ccccc3c(NCCCN3CCOCC3)c12
TGI (786-0 renal): 0.0404 µM
TGI (A498 renal): 0.0377 µM
TGI (ACHN renal): 0.0506 µM
TGI (CCRF-CEM leukemia): 0.13 µM
TGI (COLO 205 colon): 0.0303 µM
TGI (HCT-15 colon): 0.0491 µM
TGI (HOP-62 NSCLC): 0.0618 µM
TGI (HT29 colon): 0.0349 µM
TGI (KM12 colon): 0.054 µM
TGI (MDA-MB-435): 0.0242 µM
TGI (MDA-N): 0.0149 µM
TGI (MOLT-4 leukemia): 24.2 µM
TGI (NCI-H226 lung): 0.0501 µM
TGI (NCI-H460 lung): 0.0661 µM
TGI (NCI-H522 lung): 0.0936 µM
TGI (SF-295 CNS): 0.0854 µM
TGI (SK-MEL-5 melanoma): 0.0263 µM
TGI (SNB-75 CNS): 0.114 µM
TGI (SW-620 colon): 0.686 µM
TGI (TK-10 renal): 0.149 µM

Cc1c(CCCl)c(N=[N+]=[N-])n2c(nc3ccccc32)c1C#N
TGI (786-0 renal): 1.63 µM
TGI (A498 renal): 3.85 µM
TGI (ACHN renal): 2.85 µM
TGI (CCRF-CEM leukemia): 0.987 µM
TGI (COLO 205 colon): 2.66 µM
TGI (HCT-15 colon): 2.72 µM
TGI (HOP-62 NSCLC): 5.01 µM
TGI (HT29 colon): 4.52 µM
TGI (KM12 colon): 3.27 µM
TGI (MDA-MB-435): 2.73 µM
TGI (MDA-N): 3.12 µM
TGI (MOLT-4 leukemia): 1.12 µM
TGI (NCI-H226 lung): 4.29 µM
TGI (NCI-H460 lung): 3.32 µM
TGI (NCI-H522 lung): 0.44 µM
TGI (SF-295 CNS): 3.54 µM
TGI (SK-MEL-5 melanoma): 1.35 µM
TGI (SNB-75 CNS): 2.87 µM
TGI (SW-620 colon): 1.21 µM
TGI (TK-10 renal): 3.02 µM
